According to patent US5981774A, “Compounds for the treatment of hepatoma” (National Science Council, priority 1993, dated 1999):
Values after ≈ are worked out from the molar mass of the structure shown.

Experiments:
leukemia cells = conditions: Habib et al., 1987; cited from earlier work
KB cells [1] = assay: microassay for anticellular effect (cytotoxicity, ED50), KB cells; format: cell-based, human; conditions: for IC50: Homo sapiens, 96 h; for inhibitory activity in words (KB): KB cells in vitro
Procedure: (§1) The name PLC/PRF/5 designates human primary liver cancer cells; the symbol KB designates epidermoid carcinoma cells.
(§2) PLC/PRF/5 cells were isolated from human hepatoma and are known to produce HBs Ag continuously in culture fluids. The cells were grown as continuous cultures in a growth medium consisting of Dulbecco's modified Eagle medium (DMEM, GIBCO, Grand Island, N.Y.), 10% fetal bovin serum (FBS, GIBCO), 100 IU/ml penicillin, 100 µg/ml streptomycin and 2 mM L-glutamine. The KB cells were maintained on DMEM containing 10% FBS L-glutamine and antibiotics. For the microassay, the growth medium was supplemented further with 10 mM Hepes buffer, pH 7.3.
(§3) The ED50 values were calculated from a semilog plot of the drug concentration vs. the percentage of viable cells on day 4.

[2] = system: human hepatoma PLC/PRF/5 cells; assay: microassay for anticellular effect (cytotoxicity, ED50), PLC/PRF/5 cells; format: cell-based; conditions: for ED50 (PLC/PRF/5) / IC50: PLC/PRF/5 cells, % viable cells on day 4, n = 8, significant activity requires ED50 < 4.0 ug/ml; for IC50: Homo sapiens; for inhibitory activity in words (PLC/PRF/5): human hepatoma PLC/PRF/5 cells in vitro
Procedure: as §1, §2, §3

human PLC/PRF/5 cells = assay: Inhibition of Macromolecular Synthesis ([3H]-thymidine, -uridine or -methionine incorporation), PLC/PRF/5 cells; format: cell-based; conditions: for dependence of inhibition of macromolecular biosynthesis on concentration and time (PLC/PRF/5): PLC/PRF/5 cells; for effects on DNA, RNA and protein synthesis (PLC/PRF/5): human PLC/PRF/5 cells, FIGS. 1, 3, 5; for suppression of cellular DNA, RNA and protein synthesis: overall conclusion, cell line not stated
Procedure: (§4) The activity of compounds 16, 17 and 21 on macromolecular synthesis were determined by measuring the isotopic incorporation of [^3 H]-thymidine, -uridine and -methionine in the human PLC/PRF/5 and KB cells respectively.
(§5) PLC/PRF/5 cells were obtained from human hepatoma and are known to produce HBs Ag continuously in culture fluids. Human hepatoma PLC/PRF/5 and epidermis carcinoma KB cells were maintained in Dulbeceo's modified Eagle medium (DMEM, Gibco BRL Grand Island, N.Y., U.S.A.), containing 10% fetal bovine serum (FBS, Gibco BRL), 2 mM L-glutamine, 100 units mL-1 penicillin, 100 μg mL-l streptomycin. The 212 cells were maintained in Minimum essential alpha medium (MEM, Gibco BRL), containing 10% calf serum (Gibco BRL). For microassay, the growth medium was supplemented with 10 mM HEPES buffer, pH 7.3 and incubated at 37° C. in a CO2 incubation.
(§6) Inhibition of Macromolecular Synthesis. The synthesis of macromolecules were measured by the incorporation of ^3 H-thymidine, -uridine or -methionine (New England) Nuclear, Boston, Mass., USA) into the tumor cells. Briefly, the tumor cell (1 1.5×10^4 /100 μl/well) maintained in growth medium with or without drugs in microplates were incubated at 37° C. The cells after pulsed labeling with [^3 H]-thymidine, -uridine, or -methionine for 18 hrs at day 4 post-treatment were harvested and loaded onto glass filter paper (Skatron. Va., USA). The incorporation activities of the cells were measured by the liquid scintillation counter (LS-5000 TA, Beckman Calif., USA). All treatments were conducted in quadruplicate and the mean values were used for analysis. Each experiment was repeated at least 3 times. The data shown are mean counts per minute (CPM)±SEM. Percent inhibition of [^3 H]-thymidine, -uridine, or -methionine incorporation was calculated as follows: [formula]

[3] = system: epidermis carcinoma KB cells; assay: Inhibition of Macromolecular Synthesis ([3H]-thymidine, -uridine or -methionine incorporation), KB cells; format: cell-based, human; conditions: for effects on DNA, RNA and protein synthesis (KB): FIGS. 2, 4, 6
Procedure: as §4, §5, §6

KB cells [4] = conditions: KB cells in vitro; Lin et al., 1991, 1992; cited from earlier work
[5] = system: human hepatoma PLC/PRF/5 cells; conditions: human hepatoma PLC/PRF/5 cells in vitro; Lin et al., 1991, 1992; cited from earlier work
[6] = KB cells, % viable cells on day 4, n = 8, significant activity requires ED50 < 4.0 ug/ml

Molecule: 3',4'-deoxy-4'-chloropsorspermin-3'-ol
- cytotoxic effects against leukemia cells (leukemia cells): strong cytotoxic effects

Molecule: 3',4'-deoxy-psorospermin
- cytotoxic effects against leukemia cells (leukemia cells): strong cytotoxic effects

Molecule: 3',4'=deoxypsorospermin-3',4'-diol
- cytotoxic effects against leukemia cells (leukemia cells): strong cytotoxic effects

Molecule: N.N.[Cl][Pt][Cl] [Cisplatin, reference compound]
- ED50 (KB) (KB cells [1]; [6]): 0.16 µg/mL
- ED50 (PLC/PRF/5) [2]: 5.29 µg/mL

Molecule: O=c1c2ccccc2oc2cc(O)ccc12 [Compound 13, 3-hydroxyxanthone]
- IC50 (KB cells [1]; [6]): 0.77 µg/mL (≈ 3.63 µM)
- inhibitory activity in words (KB) (KB cells [1]): significant and potent inhibitory activity
- IC50 ([2]; PLC-PRF-5, 96 h): 3.73 µg/mL (≈ 17.6 µM)
- ED50 (PLC/PRF/5) ([2]; 5760 min): 3.75 µg/mL (≈ 17.7 µM)
- inhibitory activity in words (PLC/PRF/5) [2]: significant and potent inhibitory activity

Molecule: O=c1c2ccccc2oc2cc(OCC3CO3)ccc12 (stereo not shown) [Compound 14, 3-(2,3-Epoxypropoxy)xanthone]
- IC50 (KB cells [1]; [6]): 0.85 µg/mL (≈ 3.17 µM)
- IC50 ([2]; 96 h): 1.43 µg/mL (≈ 5.33 µM)
- inhibitory activity in words (PLC/PRF/5) [2]: enhanced very markedly the inhibitory effects

Molecule: O=c1c2ccc(OCC3CO3)cc2oc2ccc(OCC3CO3)cc12 (stereo not shown) [Compound 16, 2,6-di(2,3-epoxypropoxy) xanthone]
- IC50 (KB cells [1]; [6]): 0.0043 µg/mL (≈ 0.0126 µM)
- inhibitory activity in words (KB) (KB cells [1]): more potent inhibitory activity
- ED50 potency relative to cisplatin (KB) (KB cells [1]; KB cells, versus cisplatin): over 40 times
- IC50 ([2]; 96 h): 0.23 µg/mL (≈ 0.676 µM)
- dependence of inhibition of macromolecular biosynthesis on concentration and time (PLC/PRF/5) (human PLC/PRF/5 cells): correlated with the concentration and the period of drug treatment
- effects on DNA, RNA and protein synthesis (PLC/PRF/5) (human PLC/PRF/5 cells): effects are significant at low concentration
- suppression of cellular DNA, RNA and protein synthesis (human PLC/PRF/5 cells): suppress cellular DNA, RNA and protein synthesis
- dependence of inhibition of macromolecular biosynthesis on concentration and time (KB) [3]: only correlated with the concentration of drug treatment
- effects on DNA, RNA and protein synthesis (KB) [3]: not apparent

Molecule: O=c1c2ccc(OCC3CO3)cc2oc2cc(OCC3CO3)ccc12 (stereo not shown) [Compound 17, 3,6-di(2,3-epoxypropxy)xanthone]
- IC50 (KB cells [1]; [6]): 0.11 µg/mL (≈ 0.323 µM)
- IC50 ([2]; 96 h): 0.24 µg/mL (≈ 0.705 µM)
- dependence of inhibition of macromolecular biosynthesis on concentration and time (PLC/PRF/5) (human PLC/PRF/5 cells): correlated with the concentration and the period of drug treatment
- effects on DNA, RNA and protein synthesis (PLC/PRF/5) (human PLC/PRF/5 cells): effects are significant at low concentration
- suppression of cellular DNA, RNA and protein synthesis (human PLC/PRF/5 cells): suppress cellular DNA, RNA and protein synthesis
- dependence of inhibition of macromolecular biosynthesis on concentration and time (KB) [3]: only correlated with the concentration of drug treatment
- effects on DNA, RNA and protein synthesis (KB) [3]: not apparent

Molecule: O=c1c2cccc(OCC3CO3)c2oc2cc(OCC3CO3)cc(O)c12 (stereo not shown) [Compound 21, 3,5-di(2,3-epoxypropoxy)-1-hydroxyxanthone]
- IC50 (KB cells [1]; [6]): 0.089 µg/mL (≈ 0.25 µM)
- inhibitory activity in words (KB) (KB cells [1]): significant novel inhibitory activity
- IC50 ([2]; 96 h): 0.061 µg/mL (≈ 0.171 µM)
- inhibitory activity in words (PLC/PRF/5) [2]: significant novel inhibitory activity
- dependence of inhibition of macromolecular biosynthesis on concentration and time (PLC/PRF/5) (human PLC/PRF/5 cells): correlated with the concentration and the period of drug treatment
- effects on DNA, RNA and protein synthesis (PLC/PRF/5) (human PLC/PRF/5 cells): effects are significant at low concentration
- suppression of cellular DNA, RNA and protein synthesis (human PLC/PRF/5 cells): suppress cellular DNA, RNA and protein synthesis
- dependence of inhibition of macromolecular biosynthesis on concentration and time (KB) [3]: only correlated with the concentration of drug treatment
- effects on DNA, RNA and protein synthesis (KB) [3]: not apparent

Molecule: COc1cc2c(c3oc4c(O)cccc4c(=O)c13)C[C@H]([C@@]1(C)CO1)O2 [Psorospermin]
- cytotoxic effects against leukemia cells (leukemia cells): strong cytotoxic effects

Molecule: C=C(C)C1Cc2c(oc3c4c(cc(O)c3c2=O)OC(C)(C)C=C4)-c2c(O)cc(OC)c(O)c21 (stereo not shown) [artomunoxanthone]
- cytotoxic effects (KB), isolated natural compounds (KB cells [4]): exhibited cytotoxic effects
- cytotoxic effects (PLC/PRF/5), isolated natural compounds [5]: exhibited cytotoxic effects

Molecule: COc1cc2c(cc1O)-c1oc3c4c(cc(O)c3c(=O)c1C(C=C(C)C)O2)OC(C)(C)C=C4 (stereo not shown) [cycloartomunin]
- cytotoxic effects (KB), isolated natural compounds (KB cells [4]): exhibited cytotoxic effects
- cytotoxic effects (PLC/PRF/5), isolated natural compounds [5]: exhibited cytotoxic effects

Molecule: CC(C)=CC1Oc2cc(O)ccc2-c2oc3cc(O)c(/C=C/C(C)C)c(O)c3c(=O)c21 (stereo not shown) [cyclocommunin]
- cytotoxic effects (KB), isolated natural compounds (KB cells [4]): exhibited cytotoxic effects
- cytotoxic effects (PLC/PRF/5), isolated natural compounds [5]: exhibited cytotoxic effects

Molecule: CC(C)=CC1Oc2cc(O)ccc2-c2oc3cc(O)cc(O)c3c(=O)c21 (stereo not shown) [cyclocommunol]
- cytotoxic effects (KB), isolated natural compounds (KB cells [4]): exhibited cytotoxic effects
- cytotoxic effects (PLC/PRF/5), isolated natural compounds [5]: exhibited cytotoxic effects

Molecule: CC(C)=CC1Oc2cc(O)ccc2-c2oc3c4c(cc(O)c3c(=O)c21)OC(C)(C)C=C4 (stereo not shown) [cyclomorusin]
- cytotoxic effects (KB), isolated natural compounds (KB cells [4]): exhibited cytotoxic effects
- cytotoxic effects (PLC/PRF/5), isolated natural compounds [5]: exhibited cytotoxic effects

Molecule: O^5 -methyl-3',4'-deoxypsorospermin-3'-ol
- cytotoxic effects against leukemia cells (leukemia cells): strong cytotoxic effects

Molecule: artomunoxanth-otrione epoxide
- cytotoxic effects (KB), isolated natural compounds (KB cells [4]): exhibited cytotoxic effects
- cytotoxic effects (PLC/PRF/5), isolated natural compounds [5]: exhibited cytotoxic effects

Molecule: cyclo-mulberrin
- cytotoxic effects (KB), isolated natural compounds (KB cells [4]): exhibited cytotoxic effects
- cytotoxic effects (PLC/PRF/5), isolated natural compounds [5]: exhibited cytotoxic effects

Molecule: dihydrocyclo-artomunin
- cytotoxic effects (KB), isolated natural compounds (KB cells [4]): exhibited cytotoxic effects
- cytotoxic effects (PLC/PRF/5), isolated natural compounds [5]: exhibited cytotoxic effects

Molecule: dihydroisocycloartomunin
- cytotoxic effects (KB), isolated natural compounds (KB cells [4]): exhibited cytotoxic effects
- cytotoxic effects (PLC/PRF/5), isolated natural compounds [5]: exhibited cytotoxic effects
